These results are taken from paper PMC4102965 (ACS Chemical Neuroscience, 2014).

The target of series [1] is gabapentin-binding site (presumably α2-δ subunit proteins) (Rattus norvegicus, UniProt P54290). The experiment in a line: [3H]gabapentin-binding assay, rat cerebral cortex membranes.
The test system of a further series is SNL rats. Conditions: previously reported; cited from earlier work.
The conditions of series [2]: human; cited from earlier work.
The subject of series [3] is neuromuscular coordination in rats. The series can be described thus: Rotarod test. Conditions: for duration (s) 1 h / duration (s) 2 h / duration (s) 3 h: mean (SEM), max 180 s. A general note: The rotarod test checks motor coordination on a turning rod.
For series [4] the following is noted: dog; cited from earlier work.
The next series relates to PSL rats. The series can be described thus: Anti-allodynia test in PSL. Particulars: 30 mg/kg oral. The series is classed as in vivo.
A short description of series [5]: Pharmacokinetics after single oral dosing, plasma and brain by LC-MS/MS. Conditions: male, SD, rat, 30 mg/kg. The series is classed as in vivo, rats.
The next series concerns SNL mice. The experiment in a line: Anti-allodynia test in SNL. Particulars: 30 mg/kg oral gavage.

Like-named read-outs stand apart in the source and are kept apart here. Marks after values point to notes of the source that are not given here.

gabapentin-binding site (presumably α2-δ subunit proteins), sequence (P54290 25-1091): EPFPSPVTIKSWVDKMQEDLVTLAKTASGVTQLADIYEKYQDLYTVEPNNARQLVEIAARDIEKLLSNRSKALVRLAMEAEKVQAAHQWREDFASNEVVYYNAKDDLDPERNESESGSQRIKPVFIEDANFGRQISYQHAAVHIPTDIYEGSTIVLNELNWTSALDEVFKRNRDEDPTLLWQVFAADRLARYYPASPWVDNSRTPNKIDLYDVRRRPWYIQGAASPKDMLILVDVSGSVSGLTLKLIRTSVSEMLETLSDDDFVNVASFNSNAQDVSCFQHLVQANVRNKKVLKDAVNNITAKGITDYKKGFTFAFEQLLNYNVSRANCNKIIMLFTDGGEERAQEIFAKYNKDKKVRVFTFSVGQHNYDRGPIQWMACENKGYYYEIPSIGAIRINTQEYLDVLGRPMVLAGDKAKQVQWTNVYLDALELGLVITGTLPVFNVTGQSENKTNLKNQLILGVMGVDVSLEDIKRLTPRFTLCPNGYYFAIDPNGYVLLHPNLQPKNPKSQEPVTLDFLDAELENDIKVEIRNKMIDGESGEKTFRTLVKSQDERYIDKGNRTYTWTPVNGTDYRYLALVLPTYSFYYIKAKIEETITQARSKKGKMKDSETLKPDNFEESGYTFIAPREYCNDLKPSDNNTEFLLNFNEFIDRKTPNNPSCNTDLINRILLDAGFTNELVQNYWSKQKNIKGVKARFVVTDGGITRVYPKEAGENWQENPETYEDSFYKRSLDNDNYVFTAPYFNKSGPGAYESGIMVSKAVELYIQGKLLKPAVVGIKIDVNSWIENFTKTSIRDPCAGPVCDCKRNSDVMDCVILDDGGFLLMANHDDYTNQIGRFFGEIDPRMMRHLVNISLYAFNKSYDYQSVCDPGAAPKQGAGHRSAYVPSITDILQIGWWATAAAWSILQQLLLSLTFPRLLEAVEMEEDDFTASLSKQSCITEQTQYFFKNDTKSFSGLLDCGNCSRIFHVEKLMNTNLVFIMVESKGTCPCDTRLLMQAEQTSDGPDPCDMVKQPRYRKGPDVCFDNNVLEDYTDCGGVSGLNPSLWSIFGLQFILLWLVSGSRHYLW

In general, inhibition refers to how much of the control response was suppressed. In the case of `CC(C)CC(CN)CC(=O)O` (centres unmarked) [pregabalin, 3-isobutyl-γ-aminobutyric acid], the “RBA (%)” value in series [1] (IC50 of pregabalin divided by IC50 of test compound) was found to be 100%. Besides, the inhibition at 0.39 µM in series [1] (read-out: % inhibition (at μM)) stood at 79%. In addition, the “effect on pain thresholds on both sides of SNL rats” value in the series with SNL rats was “bilateral hypalgesic activity”. For the same compound, the “plasma half-life (T1/2)” value in series [2] and in series [4] was “around 6 h” each time. The “duration (s) 1 h” value is recorded as 180 (0.0) s in series [3] (10 mg/kg oral), 180 (0.0) s in series [3] (30 mg/kg oral) and 53 (11.5)^# s in series [3] (100 mg/kg oral). For the same compound, the “duration (s) 2 h” value is listed as 160 (19.8) s in series [3] (10 mg/kg oral), 93 (24.4)^## s in series [3] (30 mg/kg oral) and 13 (6.3)^## s in series [3] (100 mg/kg oral). Moreover, the “duration (s) 3 h” value in series [3] (10 mg/kg oral, 10 mg/kg) is reported as “significantly shortened”; in series [3] (30 mg/kg oral), 12 (3.7)^## s; in series [3] (100 mg/kg oral) it was 6 (2.1)^## s. Also, the “effect on neuromuscular coordination (duration on the rotating rods)” value in series [3] (oral, over the doses tested) was “significantly and dose-dependently reduced the duration”. Moreover, the analgesic effects result with PSL rats (PSL (Seltzer) rats) is “significant analgesic effects”. In addition, the “time at which efficacy on the ipsilateral side peaked” value in the series with PSL rats (PSL rats) was determined as 180 min. The “time up to which efficacy on the ipsilateral side was sustained” value in the series on PSL rats (PSL rats) is 300 min. Besides, the “hypalgesic effect on the contralateral side” value in the series on PSL rats (PSL rats, 180 min after administration) is given as “remarkable hypalgesic effect”. In addition, the concentration at 1 h in series [5] (brain) is 12.4 µM; in series [5] (plasma) it was 109 µM. Moreover, the “antiallodynic activity (pain thresholds, paw withdrawal to von Frey filaments)” value in the series with SNL mice (SNL mice) is “significant antiallodynic activity”. Moreover, the “pain thresholds in sham mice (hypalgesic effect)” value in the series on SNL mice (sham mice) is “significantly increased the pain thresholds in sham mice at the late time point of 180 min”.
